Data set [1] in a line: oral bioavailability in rats, radioimmunoassay (RIA) detection. Particulars: female, CD, rat, in vivo. As to the method:
Oral bioavailability was also determined using a radioimmunoassay (RIA) detection method. Female CD-1 mice (Charles River, Wilmington, Mass.) weighing approximately 25g (7-8 weeks old) or female CD rats (Charles River, Wilmington, Mass.) weighing approximately 153 g were included in this study. Monoclonal antibody, 20C1 (Brandwein et al. 1985 Infect Immun. 47:242-246), which recognizes SEQ ID NO:7 and ^125I labeled-SEQ ID NO:7, a labeled tracer, were used in these experiments. The labeled tracer was purified by HPLC using a Waters C-18u Bondapak® column (25 cm) previously equilibrated with 10 mM ammonium acetate pH 5.8. A gradient from 0 to 25% acetonitrile was applied to the column in 60 min, followed by isocratic elution at 25% acetonitrile for another 20 min. This method separated two monoiodinated forms from each other and from unlabeled precursor (Thompson et al. 1985 Anal Biochem. 148:26-36). […] The labeled tracer bad a specific activity of 2200 Ci/mmol. The tracer was stored in aliquots at −20° C. Animals were fasted overnight before administration of compounds. Animals received SEQ ID NO:3 (rats—10 mg/kg; mice 8 mg/kg) or vehicle alone (20 mM Tris-HCl, ph7.5) intravenously or orally. Blood was drawn from all dosed animals by retro-orbital eye bleeding at specific intervals and test compound levels were analyzed by radioimmunoassay (RIA). SEQ ID NO:3 was extracted from the serum or plasma using Amersham Biosciences Amprep C18 columns (100 mg). Samples (80 μL) were first diluted to 0.5 mL with start buffer (8% methanol, 0.095% TFA in water) and applied to C18 columns previously conditioned with 1 mL methanol and equilibrated with 2 mL of start buffer. […] Radioactivity was measured in a LS 6500 scintillation counter (Beckman-Coulter). The binding efficiency is defined as the percent radioactivity in the B0 sample compared to the input counts. The percent bound in each sample was calculated by the equation: […]
A standard curve was prepared by plotting % B/B0 as a function of the log SEQ ID NO:3 concentration. […] Oral Bioavailabilty (F) is calculated using the equation: […]

The test system of a further data set is bowel habits. The data set can be described thus: single oral dose study of bowel habits in humans. It counts as in vivo. As to the method: Single doses of 30, 100, 300, 1000 or 3000 μg of chemically synthesized SEQ ID NO:3 were given to 30 healthy males and postmenopausal females. At each dose level (100 μg was done twice) SEQ ID NO:3 or placebo (vehicle) was administered orally in 5.0 mL 50 mM phosphate buffer (pH 6.0) plus 3×20 mL water rinses and 175 mL water after at least a 10-hour fast. In each dosing group, subjects were randomized to receive either placebo (1 subject) or SEQ ID NO:3 (3-4 subjects). Bowel habits (including Bristol Stool Form Scale score (BSFS; FIG. 14a), stool frequency, and stool weight) were evaluated for each collected bowel movement 48 hours prior to dose and up to approximately 48 hours postdose.

The test system of data set [2] is ligated loop in the small intestine. The data set can be described thus: ligated intestinal loop model in wild-type and GC-C KO mice. It counts as in vivo. The note with it: 5 μg injected into loop, 90 minutes. How it is done: The length of each loop was also recorded.
Data set [3] deals with ligated loops of intestine. The data set can be described thus: ligated intestinal loop model in rats. It is filed as in vivo, CD rats. Particulars: center loop of the rat small intestine; 5 μg.
Method: The loop was roughly centered and was a length of 1-3 cm. The loops were injected with 100 μl of either SEQ ID NO:3 (5 μg) or vehicle (20 mM Tris, pH 7.5 or Krebs Ringer, 10 mM Glucose, HEPES buffer (KRGH)). Following a recovery time of 90 minutes the loops were excised. Weights were recorded for each loop before and after removal of the fluid contained therein. The length of each loop was also recorded. A weight to length ratio (W/L) for each loop was calculated to determine the effects of SEQ ID NO:3 on secretion.
To determine the effect of SEQ ID NO:3 on cGMP activity, fluid from the loop was collected in ice-cold trichloracetic acid (TCA) and stored at −80° C. for use in an assay to measure cGMP levels in the fluid. Intestinal fluid samples were TCA extracted, and cyclic GMP was measured by EIA according to procedures outlined in the Cayman Chemical Cyclic GMP EIA kit (Cayman Chemical, Ann Arbor, Mich.) to determine cyclic GMP levels in the intestinal fluid of the mouse in the presence of either SEQ ID NO:3 or vehicle.
In the case of the rat, however four loops of intestine were surgically ligated. The first three loops were distributed equally in the small intestine and the fourth loop was located in colon. Loops were 1 to 3 centimeters, and were injected with 200 μL of either SEQ ID NO:3 (5 μg) or vehicle (Krebs Ringer, 10 mM glucose, HEPES buffer (KRGH)).
A further data set has as its system PBQ-induced writhing. Kind of data set: phenylbenzoquinone (PBQ)-induced writhing model.

The structures appear in SMILES notation. Like-named read-outs stand apart in the source and are kept apart here. Bridge positions count the residues as written; N and C are the ends. Peptide text beside a SMILES is read from it.

For orientation: bioavailability means the share of a dose that reaches the circulation, judged against a reference dose that is usually intravenous. The low end stands for poor availability, the high end for good availability. For the molecule `C[C@@H]1NC(=O)[C@@H]2CCCN2C(=O)[C@H](CC(N)=O)NC(=O)[C@@H]2CSSC[C@H](N)C(=O)N[C@H]3CSSC[C@H](NC1=O)C(=O)N[C@@H]([C@@H](C)O)C(=O)NCC(=O)N[C@H](C(=O)N[C@@H](Cc1ccc(O)cc1)C(=O)O)CSSC[C@H](NC(=O)[C@H](Cc1ccc(O)cc1)NC(=O)[C@H](CCC(=O)O)NC3=O)C(=O)N2` [SEQ ID NO:3] (H-CCEYCCNPACTGCY-OH; disulfide 1-6, 2-10, 5-13; N-terminus and C-terminus assumed), in data set [1] (10 mg/kg intravenous, read-out: AUCi.v.,(0-6h) (converted)), the AUC is 23700 ng·h/mL. The AUC in data set [1] (10 mg/kg oral, read-out: AUCp.o.,(0-6h) (converted)) was 48.3 ng·h/mL. In addition, the bioavailability in data set [1] (oral, 10 mg/kg, over 6 hours) came out at 0.2%. For the same molecule, in the data set on bowel habits (1000 μg dose group, mean pre-dose compared to peak 48 hours post-dose), the “percent of subjects with a 2-point or greater increase in BSFS score” value is recorded as “highest percent of subjects”. In addition, in the data set on bowel habits (single oral dose 30-3000 μg), the “BSFS post-dose scores, relation to dose” value is on record as “Higher BSFS post-dose scores correlated with a higher dose”. The “maximum BSFS (Bristol Stool Form Scale) score” value with bowel habits (single oral dose 30-3000 μg, healthy males and postmenopausal females) is recorded as “increase in maximum BSFS score”. In data set [2], the “cGMP activity in ligated loop fluid” value is reported as “no effect” and the “secretion in ligated loop (weight to length ratio)” value is “no effect”. In data set [3], the “cGMP levels in ligated loop” value is reported as “increases” and the “secretion in ligated loop” value was “increases”. For the same molecule, the “writhings versus vehicle control” value in the data set on PBQ-induced writhing (2.5 mg/kg dose, oral) was “Significant reductions in writhings”. The “antinociceptive effect compared with indomethacin” value in the data set on PBQ-induced writhing (PBQ writhing assay) is given as “antinociceptive effects in this visceral pain model comparable to the intermediate doses of indomethacin”.

The values above are taken from patent US20090253634A1, “Methods and Compositions for the Treatment of Gastrointestinal Disorders” (MICROBIA, INC., priority 2005, published 2009).
